Reference: paper PMC11191602, “A novel and selective fluorescent ligand for the study of adenosine A2B receptors” (Pharmacology Research & Perspectives, 2024)

Assays:
NLuc‐A2BR [1] = biological target: T1, NLuc‐A2BR (Homo sapiens, UniProt P29275); assay: NanoBRET competition binding against 50 nM PSB603‐BY630 in HEK293G cells expressing NLuc‐A2BR; settings: for Ki: read-out: Appararent Log K i (converted)
T1 construct: expressed in transfected cells
T1 sequence (P29275 1-332): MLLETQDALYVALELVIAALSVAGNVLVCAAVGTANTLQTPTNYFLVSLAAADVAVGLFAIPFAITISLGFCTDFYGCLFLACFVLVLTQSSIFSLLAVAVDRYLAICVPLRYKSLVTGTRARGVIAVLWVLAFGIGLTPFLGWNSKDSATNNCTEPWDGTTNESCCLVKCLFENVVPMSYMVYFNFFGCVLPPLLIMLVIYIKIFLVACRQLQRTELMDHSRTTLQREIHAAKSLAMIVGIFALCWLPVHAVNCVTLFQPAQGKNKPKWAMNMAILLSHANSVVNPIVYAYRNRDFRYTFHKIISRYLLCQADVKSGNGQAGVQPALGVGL
Protocol: (§1) Saturation and competition binding assays were performed as previously described.[36] Briefly, cells were seeded in 96‐well white clear‐bottomed Greiner plates pre‐treated with 10 μg/mL poly‐D‐lysine (Sigma‐Aldrich, Missouri USA) at a density of 30 000–35 000 cells per well in DMEM supplemented with 10% FBS. […] The NanoLuc substrate, furimazine (Promega Corporation, Wisconsin, USA), was then added to each well (1:400 dilution) and the plate was incubated for 10 min in the dark at 37°C. The resulting bioluminescence resonance energy transfer (BRET) was measured using a PHERAstar FS plate reader (BMG Labtech) at 37°C. For each well, filtered light emissions at 460 nm (80 nm bandpass) and >610 nm (longpass) for the BODIPY630/650 ligand were simultaneously measured. BRET ratios were calculated by dividing the 610 nm emission by the 460 nm emission. All conditions were performed in 2–6 replicates within each plate. For kinetic experiments, cells were preincubated for 10 min with 1:400 dilution of furimazine prior to addition of 200 nM PSB603‐BY630 and BRET ratios determined every 0.5 min.
The IC 50 values were then used to calculate the K i values using the Cheng‐Prussoff equation: Ki=IC50/1+L/KD where [L] is the concentration of PSB603‐BY630 in nM, and K D is the dissociation constant of that fluorescent ligand in nM.

human A2BR = biological target: human A2BR; set-up: method as in PMID 23286920; settings: membranes from CHO cells expressing the human A2BR ref 13; cited from earlier work
endogenous A2BR = biological target: T2, endogenous A2BR (Homo sapiens, UniProt P29275); assay: cAMP GloSensor luminescence assay in HEK293G cells endogenously expressing A2BR; assay type: cell-based; settings: agonist alone, n=5
T2 construct: HEK293G cells that express the cAMP biosensor Glosensor also endogenously express both A2BR and A2AR; host or cells: HEK293G
T2 sequence (P29275 1-332): T1 sequence (P29275 1-332)
Protocol: (§2) The cAMP GloSensor™ luminescence assay was performed according to the manufacturer's instructions (Promega Corporation, Madison, WI, USA). Briefly, after 24 h incubation at 37°C and 5% CO2 after cell plating (40 000 cells/well in 100 μL), medium was aspirated from each well of the 96‐well plate. Cells were incubated in 50 μL HEPES buffered saline solution (HBSS; 2 mM sodium pyruvate, 145 mM NaCl, 10 mM D‐glucose, 5 mM KCl, 1 mM MgSO4.7H2O, 10 mM HEPES, 1.3 mM CaCl2, 1.5 mM NaHCO3 in double‐distilled water, pH 7.45) containing 3% GloSensor™ cAMP reagent at 37°C for 1.5 h. For agonist studies, an initial baseline luminescence read was made at time zero, the plate was then removed from the plate‐reader and a further 50 μL HBSS containing agonist (2× final concentration) or HBSS (vehicle control) added. Luminescence was measured on an open channel (gain of 3600) immediately after these additions, and then continuously over 60 min, reading each well once every minute, by a PHERAstar FSX microplate reader (BMG Labtech, Offenburg, Germany) at 37°C. Increases in luminescence are indicative of intracellular cAMP accumulation, thus the temporal changes in relative cytosolic cAMP concentration were measured upon agonist or vehicle addition. Antagonist action was determined following 30 min pre‐incubation of HBSS in the presence of 20 and 200 nM PSB603‐BY630 and read as above. All conditions were performed in triplicates within each plate.

NLuc‐A2BR [2] = biological target: T1, NLuc‐A2BR; assay: cAMP GloSensor luminescence assay in HEK293G cells overexpressing NLuc‐A2BR; assay type: cell-based; settings: agonist alone, n=5
Protocol: as §2

NLuc‐A2BR [3] = biological target: T1, NLuc‐A2BR; assay: NanoBRET imaging of PSB603‐BY630 binding to HEK293G cells expressing NLuc‐A2BR; settings: 100 nM PSB603‐BY630, co‐incubation with 10 μM MRS‐1706, 30 min
Protocol: Cells were seeded onto 35 mm Cellview 4‐quadrant culture dishes (Greiner Bio‐one), which have a 10 mm glass coverslip bottom, in DMEM supplemented with 10% FBS at a density of 100 000 cells per quadrant 2 days prior to experiment in total volume of 500 μL. On the day of the experiment medium was replaced with HBSS in the presence or absence of PSB603‐BY630 (100 nM) and/or MRS1706 (10 μM) and incubated for 30 min at 37°C before imaging. Bioluminescence and NanoBRET imaging were performed on an Olympus LuminoView 200 microscope with a 60× NA1.42 oil immersion objective with a 0.5× tube lens, following addition of furimazine (1:800 dilution) (Promega). Images were captured by a C9100‐23B IMAGE EMX2 camera (Hamamatsu, Japan) with gain set at 200 for all channels. Filtered bioluminescence was captured using a 438/24 bandpass filter, BRET in the presence of PSB603‐BY630 was captured using a 650/50 nm bandpass filter. For the NLuc‐A2BR stable cell line exposure times were set at 10 s for filtered bioluminescence and 75 sec for BRET. Raw intensity values were determined for three regions of interest per experiment per condition and the BRET ratio calculated by dividing the raw intensity recorded from the BRET capture by the filtered bioluminescence capture. Corrected BRET ratios were determined by subtracting the BRET ratio determined from a control quadrant (HBSS alone). […]

human NLuc‐A3R = biological target: T3, human NLuc‐A3R (Homo sapiens, UniProt P0DMS8); assay: NanoBRET saturation binding in stable HEK293G cell line expressing NLuc‐A3R; settings: non‐specific defined with 1 μM MRS‐1220; PSB603‐BY630 at concentrations up to 500 nM
T3 construct: expressed in transfected cells
T3 sequence (P0DMS8 1-318): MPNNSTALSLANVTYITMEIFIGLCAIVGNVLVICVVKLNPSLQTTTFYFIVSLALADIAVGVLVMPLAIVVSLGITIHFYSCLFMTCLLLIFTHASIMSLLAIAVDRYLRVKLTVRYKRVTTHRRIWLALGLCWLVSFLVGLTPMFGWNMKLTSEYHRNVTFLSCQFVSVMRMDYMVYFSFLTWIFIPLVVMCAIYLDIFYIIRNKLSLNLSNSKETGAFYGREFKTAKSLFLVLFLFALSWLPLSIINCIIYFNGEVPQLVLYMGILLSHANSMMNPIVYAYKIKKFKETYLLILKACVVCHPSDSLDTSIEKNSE
Protocol: as §1, with “min. At 60 min, 10 μM MRS‐1706 was added and the ligand‐binding kinetics followed for a further 60 min.” for “min.”

SMILES: O=C(Cc1ccccc1)Nc1nc2ccc(Cl)cc2c2nc(-c3ccco3)nn12 [MRS1220, N‐[9‐Chloro‐2‐(2‐furanyl)[1,2,4]‐triazolo[1,5‐c]quinazolin‐5‐yl]benzene acetamide]
- Appararent Log K i (NLuc‐A2BR [1]; calculated from IC50 (Cheng‐Prussoff) assuming competition with 50 nM PSB603‐BY630 for the same site, mean ± S.E.M., n=5): −6.40 ± 0.19
- Log IC50 (NLuc‐A2BR [1]; inhibition of the binding of 50 nM PSB603‐BY630, mean ± S.E.M., n=5): −5.82 ± 0.19

SMILES: CCCn1c(=O)[nH]c2nc(-c3ccc(S(=O)(=O)N4CCN(c5ccc(Cl)cc5)CC4)cc3)[nH]c2c1=O [[^3H]‐PSB603]
- Kd (human A2BR): 3.6 nM

SMILES: N#Cc1c(N)nc(SCC(N)=O)c(C#N)c1-c1ccc(OCC2CC2)cc1 [BY 60–6583, 2‐[[6‐Amino‐3,5‐dicyano‐4‐[4‐(cyclopropylmethoxy)phenyl]‐2‐pyridinyl]thio]‐acetamide]
- Emax (endogenous A2BR; HEK293G, read-out: Endogenous HEK293G EMAX (% of response to 3 μM BAY‐60‐6583)): 104 ± 3.09%
- EC50 (endogenous A2BR; read-out: Endogenous HEK293G Log EC50 (converted)): 129 nM
- Emax (NLuc‐A2BR [2]; HEK293G, read-out: HEK293G A2BAR EMAX (% of response to 0.3 μM BAY‐60‐6583)): 100 ± 1.29%
- EC50 (NLuc‐A2BR [2]; read-out: HEK293G A2BAR Log EC50 (converted)): 18.6 nM

SMILES: CCCn1c(=O)c2[nH]c(-c3ccc(OCC(=O)Nc4ccc(C(C)=O)cc4)cc3)nc2n(CCC)c1=O [MRS1706, N‐(4‐Acetylphenyl)‐2‐[4‐(2,3,6,7‐tetrahydro‐2,6‐dioxo‐1,3‐dipropyl‐1H‐purin‐8‐yl)phenoxy]acetamide]
- IC50 (NLuc‐A2BR [1]): 36.3 nM
- Ki (NLuc‐A2BR [1]): 9.77 nM
- effect on PSB603‐BY630 binding to cell surface receptors (BRET imaging) (NLuc‐A2BR [3]): completely prevented

SMILES: COc1ccc(CCCn2ncc3c2nc(N)n2nc(-c4ccco4)nc32)cc1 [SCH442416, 2‐(2‐Furanyl)‐7‐[3‐(4‐methoxyphenyl)propyl]‐7H‐pyrazolo[4,3‐e][1,2,4]triazolo[1,5‐c]pyrimidin‐5‐amine]
- IC50 (NLuc‐A2BR [1]): 9550 nM
- Ki (NLuc‐A2BR [1]): 2570 nM

SMILES: O[C@H]1CC[C@H](Nc2nc(-c3ccccc3)nc3[nH]ccc23)CC1 [SLV320, trans‐4‐[(2‐Phenyl‐7H‐pyrrolo[2,3‐d]pyrimidin‐4‐yl)amino]cyclohexanol]
- IC50 (NLuc‐A2BR [1]): 6460 nM
- Ki (NLuc‐A2BR [1]): 1740 nM

SMILES: COc1ccc(-n2nc3c(NC(=O)CCC(=O)NCCOCCOCCNC(=O)CCCCCNC(=O)COc4ccc(/C=C/C5=[N+]6C(=Cc7ccc(-c8cccs8)n7[B-]6(F)F)C=C5)cc4)nc4ccccc4n3c2=O)cc1 [AV039]
- specific binding to NLuc‐A3R (human NLuc‐A3R): high affinity specific binding
